Data on five compounds can be found in patent US9988405B2, “O-phenyl chalcone compounds and uses thereof” (Neopanora Bio-technology (Zhuhai) Ltd., priority 2014, dated 2018).

The subject of assay [1] is human ovary cancer cells A2780. Description: SRB anti-proliferative assay, A2780. Particulars: read-out: Anti-proliferative IC50, A2780. It is filed as cell-based. The method, then: (§1) The present example evaluated the anti-tumor activity of the molecules provided by the present invention. The present example mainly used a method with SRB (sulforhodamine B) dying, in which proteins in the cell were stained with SRB dye to determine protein content in the cell so as to characterize cell growth density. Firstly, the test compound was formulated into a stock solution (10 mM), which was stored at 4° C. in a refrigerator. Prior to beginning the assay, the stock solution was diluted with DMSO into a series of different concentrations. The required concentrations were obtained by diluting with complete growth medium. Well growing cells were seeded in a 96-well plate (5000 cells/well, 100 uL) and cultured in an incubator at 37° C., 5% CO2, and 90% RH. 24 h later, the prepared compound solution (100 μL) was slowly added to cell solution in the 96-well plate, and the well with DMSO (final concentration 0.5%) instead of the drug was used as a drug free control. The plate was incubated for 48 h. In addition, a day 0 plate that was drug free was directly detected after cell seeded in the plate for 24 h. The 96-well plate was taken out and added with trichloroacetic acid (50 μL, final concentration 10%). The plate was incubated at 4° C. for 1 h to fix the cells.
(§2) The plate was washed with ultrapure water and air-dried. The plate was then stained with SRB dye (0.4% in 1% acetic acid, 100 μL) for 30 min at room temperature. The plate was then washed with 1% acetic acid and then air-dried. A Tris base solution (100 μL, 10 mM, pH10.4) was added, after which the plate was gently shaken for 1 h on an orbital shaker to ensure that the dyes were completed dissolved. The optical density (OD) was recorded on a TECAN Infinite M200 Pro multimode reader at 515 nm. The cell growth (% of control)=(OD value of wells added with drug−mean OD value of Day 0 plate)/(OD value of DMSO drug-free control well−mean OD value of Day 0 plate)*100.

The subject of assay [2] is human colon cancer cells HCT8. Description: SRB anti-proliferative assay, HCT-8. It counts as cell-based. The note with it: read-out: Anti-proliferative IC50, HCT-8. Here is the method:
as §1, §2

The subject of assay [3] is human lung cancer cells A549. Description: SRB anti-proliferative assay, A549. It counts as cell-based. Particulars: read-out: Anti-proliferative IC50, A549. Here is the method: as §1, §2
Assay [4] deals with human breast cancer cells MCF7. Description: SRB anti-proliferative assay, MCF-7. Particulars: read-out: Anti-proliferative IC50, MCF-7. It counts as cell-based. The method, then: as §1, §2
For assay [5], the system named is human nasopharyngeal carcinoma cells CNE2. Description: SRB anti-proliferative assay, CNE2. It counts as cell-based. The note with it: read-out: Anti-proliferative IC50, CNE2. The method, then: as §1, §2
In assay [6] the test system is human colon cancer cells SW480. Description: SRB anti-proliferative assay, SW480. It counts as cell-based. The note with it: read-out: Anti-proliferative IC50, SW480. Here is the method: as §1, §2
In assay [7] the test system is human liver cancer cell HepG2. Description: SRB anti-proliferative assay, HepG2. It counts as cell-based. The note with it: read-out: Anti-proliferative IC50, HepG2. The method, then:
as §1, §2

Assay [8] deals with Paclitaxel-resistant human ovarian carcinoma cell A2780/TAX. Description: SRB anti-proliferative assay, drug-resistant A2780/TAX. It is filed as cell-based. The note with it: read-out: Anti-proliferative IC50, A2780/TAX. The method, then:
as §1, §2
(§3) We also evaluated the anti-proliferation activities of selected compounds against drug-resistant cancer cell lines.

Assay [9] relates to incristine resistant human ileocecum carcinoma cell HCT-8/VCT. Description: SRB anti-proliferative assay, drug-resistant HCT-8/VCT. It is filed as cell-based. Particulars: HCT8/VCT, read-out: Anti-proliferative IC50, HCT-8/VCT. The method, then: as §1, §2, §3
The subject of assay [10] is cis-platinum resistant human lung cancer cell A549/CDDP. Description: SRB anti-proliferative assay, drug-resistant A549/CDDP. It counts as cell-based. The note with it: read-out: Anti-proliferative IC50, A549/CDDP. The method, then:
as §1, §2, §3

The subject of assay [11] is doxorubicin resistant breast cancer cell MCF-7/DOX. Description: SRB anti-proliferative assay, drug-resistant MCF-7/DOX. It is filed as cell-based. Particulars: Homo sapiens, MCF7-DOX, read-out: Anti-proliferative IC50, MCF-7/DOX. The method, then:
as §1, §2, §3

The subject of the next assay is tubulin. Description: Microtubule polymerization inhibition assay (tubulin polymerization assay kit). The note with it: 2 mg/ml tubulin, 37° C., fluorescence, 1 hour; read-out: IC50 on inhibition of microtubules polymerization. It is filed as biochemical. The method, then:
Tubulin polymerization assay kit was used in the example, and the accompanying experimental protocol was followed. The specific method was described below.
Prior to the assay, the compounds were diluted with DMSO into a series of different concentrations and then diluted with sterile ultra-pure water into 10× solution of compounds. A 96-well plate was pre-warmed to 37° C. for 30 min in a multi-functional microplate reader. Reaction solution (2 mg/ml tubulin, 80 mM PIPES pH6.9, 2.0 mM MgCl2, 0.5 mM EGTA, 1.0 mM GTP, 15% glycerin) is prepared by materials needed in microtubule polymerization (tubulin buffer 85 uL, Glycerin buffer 150 μL, general buffer 205 μL, GTP ([…]) 4.4 μL). 5 μL solution of compound were added into the 96-well plate and incubated in a microplate reader for 1 min. DMSO was employed as a control. The plate was taken out and then reaction solution was immediately added ([…]). The plate was then immediately placed back into the reader and vibrated for 5 seconds before recording. The microplate reader was set at 37° C., and monitored in a kinetic model with emission wavelength at 450 nm and excitation wavelength at 360 nm. The plate was mixed and measured every minute and determined for 1 hour. A curve of fluorescence intensity v.s. time was obtained and the inhibition rate was calculated by the following formula. GraphPad Prism software was used to determine the IC50. Inhibition rate=[1−(average value of plateau of test curve−value of time 0)/(average value of plateau of DMSO curve−value of time 0)]*100.

The test system of another assay is A549 cells. Description: Microtubule re-assembly and mitosis on cellular level (confocal immunofluorescence). It is filed as cell-based, human. Particulars: 31 nM. Here is the method: The method was primarily described here below.
A549 cells were seeded in a confocal culture dish at 8×10^4 cells/dish, grown for 24 h and divided into two groups. DMSO (0.5%) was added to one group followed by culture for 24 h. Compound 3 (31 nM) was added to the other group followed by culture for 24 h. Then cells of two dishes were fixed directly (37° C.). The remaining cells were placed in ice for 1 h, then at 37° C. for 0, 5, 10, and 15 min Cells were then fixed with paraformaldehyde (4%) for 15 min. Then cells were subject to permeabilization buffer for 15 min Primary β-tubulin mouse antibody was added and incubated at room temperature for 1 h.
3 on microtubules, microtubule re-assembly and mitosis: a, c-f, was the solvent control group (0.5% DMSO added), b, g-j was test group (31 nM compound no. 3 added), Scale bars: […].

Where [12] appears, read: paclitaxel-resistant A2780/TAX, SRB.
The mark [13] stands for this setting: vincristine-resistant HCT-8/VCT, SRB.
[14] abbreviates: cis-platinum resistant A549/CDDP, SRB.
The mark [15] stands for this setting: doxorubicin resistant MCF-7/DOX, SRB.

Where two headings read alike, the source gives them in different places.

`COc1ccc(/C=C/C(=O)c2ccccc2-c2ccc(F)cc2)cc1B(O)O` [compound 1, (E)-(5-(3-(4′-Fluoro[1,1′-biphenyl]-2-yl)-3-oxoprop-1-en-1-yl)-2-methoxyphenyl)boronic acid]: the IC50 in [1] (A2780, SRB, 48 h) amounted to 63 nM; in [2] (HCT-8, SRB, 48 h), 63 nM; in [3] (A549, SRB, 48 h), 70 nM; in assay [4] (MCF7, MCF-7, SRB, 48 h), 40 nM; in assay [5] (CNE-2, CNE2, SRB, 48 h), 83 nM; in assay [6] (SW480, SRB, 48 h), 41 nM. For the same compound, the IC50 in [7] (HepG2, SRB, 48 h) amounted to 30 nM; in assay [8] (setting [12]), 227 nM; in [9] (setting [13]), 84 nM; in [10] (setting [14]), 74 nM; in assay [11] (setting [15]), 24 nM; with tubulin, 3410 nM.

Consider `CN(C)c1ccc(/C=C/C(=O)c2ccccc2-c2ccc(F)cc2)cc1` [compound 2, (E)-3-(4-(Dimethylamino)phenyl)-1-(4′-fluoro[1,1′-biphenyl]-2-yl)prop-2-en-1-one], for which the IC50 in assay [1] (A2780, SRB, 48 h) worked out at 94 nM; in assay [2] (HCT-8, SRB, 48 h), 133 nM; in [3] (A549, SRB, 48 h), 64 nM; in assay [4] (MCF7, MCF-7, SRB, 48 h), 66 nM; in [5] (CNE-2, CNE2, SRB, 48 h), 36 nM; in assay [6] (SW480, SRB, 48 h) it was 47 nM. The IC50 in assay [7] (HepG2, SRB, 48 h) came to 58 nM; in assay [8] (setting [12]), 49 nM; in [9] (setting [13]), 96 nM; in [10] (setting [14]), 105 nM; in assay [11] (setting [15]) it was 45 nM; with tubulin it was 3560 nM.

With `COc1ccc(/C=C/C(=O)c2ccccc2-c2cccc(F)c2)cc1O` [compound 3, (E)-1-(3′-Fluoro[1,1′-biphenyl]-2-yl)-3-(3-hydroxy-4-methoxyphenyl)prop-2-en-1-one], the IC50 is 13 nM in assay [1] (A2780, SRB, 48 h); 16 nM in assay [2] (HCT-8, SRB, 48 h); 11 nM in assay [3] (A549, SRB, 48 h); 65 nM in assay [4] (MCF7, MCF-7, SRB, 48 h); 17 nM in assay [5] (CNE-2, CNE2, SRB, 48 h); 12 nM in assay [6] (SW480, SRB, 48 h). Moreover, the IC50 in [7] (HepG2, SRB, 48 h) worked out at 14 nM; in [8] (setting [12]), 190 nM; in [9] (setting [13]) it was 57 nM; in assay [10] (setting [14]), 121 nM; in assay [11] (setting [15]), 2 nM; in the assay on tubulin, 487 nM. Moreover, in the assay with A549 cells, the “Abnormal events in mitotic phase” value was “multipolarization of spindle and multinucleation”. Moreover, the “Effect on filiform structure of microtubule” value with A549 cells (24 h) is “microtubule depolymerized to form discreet tublin”. Besides, the “Automatic re-assembly (polymerization) of tubulin into microtubule after ice incubation” value with A549 cells (ice 1 h then 37° C. 0-15 min) is given as “obviously inhibited”.

In the case of `COc1ccc(/C=C/C(=O)c2ccccc2-c2cc(OC)c(OC)c(OC)c2)cc1O` [compound 4, (E)-3-(3-Hydroxy-4-methoxyphenyl)-1-(3′,4′,5′-trimethoxy[1,1′-biphenyl]-2-yl)prop-2-en-1-one], the IC50 in assay [1] (A2780, 48 h) was 69 nM; in [2] (HCT-8, 48 h), 56 nM; in assay [3] (A549, 48 h), 69 nM; in assay [4] (MCF7, 48 h), 82 nM; in assay [5] (CNE-2, 48 h), 37 nM; in assay [6] (SW480, 48 h), 61 nM. Further, the IC50 in assay [7] (HepG2, 48 h) was found to be 46 nM; in assay [8] (A2780/TAX) it was 364 nM; in assay [9], 238 nM; in assay [10] (A549/CDDP), 93 nM; in assay [11], 66 nM; with tubulin, 2780 nM.

Take `COc1ccc(/C=C/C(=O)c2ccccc2-c2ccc(OC)c(OC)c2OC)cc1O` [compound 5, (E)-3-(3-Hydroxy-4-methoxyphenyl)-1-(2′,3′,4′-trimethoxy[1,1′-biphenyl]-2-yl)prop-2-en-1-one]: the IC50 stood at 74 nM in [1] (A2780, SRB, 48 h); 59 nM in [2] (HCT-8, SRB, 48 h); 55 nM in assay [3] (A549, SRB, 48 h); 96 nM in [4] (MCF7, MCF-7, SRB, 48 h); 45 nM in assay [5] (CNE-2, CNE2, SRB, 48 h); 74 nM in assay [6] (SW480, SRB, 48 h). Besides, the IC50 in assay [7] (HepG2, SRB, 48 h) came out at 52 nM; in assay [8] (setting [12]) it was 289 nM; in [9] (setting [13]), 266 nM; in [10] (setting [14]), 122 nM; in [11] (setting [15]) it was 59 nM; in the assay with tubulin it was 6500 nM.
